What was measured:
11β-HSD1 = biological target: T1, 11β-HSD1 (Homo sapiens, UniProt P28845); conditions: healthy candidates and type 2 diabetic patients, but not the obese; cited from earlier work
T1 construct: host or cells: human subjects in vivo

[1] = biological target: T2, human-derived 11β-HSD1 (h11β-HSD1) enzyme (Homo sapiens, UniProt P28845); assay: Cell assay on 11β-HSD1 (HEK-293 cells overexpressing h11β-HSD1, cortisone to cortisol, cortisol ELISA); format: cell-based; conditions: HEK293, HEK-293 cells transfected with h11β-HSD1; for inhibition at 10 µM: 10 μM compound, read-out: hHSD1 inhibiting activity, % inhibition at 10 μM; for inhibition at 100 µM: 100 μM compound, read-out: hHSD1 inhibiting activity, % inhibition at 100 μM
T2 construct: expressed in transfected cells; host or cells: HEK-293 cells, transfected with Fugene 6
Protocol: In order to investigate inhibitory effects of the compounds according to the present invention on activity of human-derived 11β-HSD1 (h11β-HSD1) enzyme, the following experiment was performed.
To assay the activity of the 11β-HSD1 enzyme, a recombinant DNA having h11β-HSD1 gene was introduced into an animal cell to induce overexpression of the enzyme [Arampatzis, S. J Mol. Endocrinol. […] First, HEK-293 cells were incubated using a cell incubator until they reached 70-80% confluency on a surface of the container. The recombinant DNA having h11β-HSD1 gene was mixed with Fugene 6, followed by reaction at room temperature for 1 hour. The resulting material was used to treat the cells, and thus DNA was injected into the cells. The next day, the cell supernatant was removed, followed by supplement of fresh medium, and then the cells were further incubated for 24 hours in the cell incubator.
When the cells were incubated at 70-80% confluency, the cells were detached with trypsin, and the number of cells was measured by using a Hemacytometer. The incubated liquid was diluted to contain 20,000 cells/ml, and 100 μl of the diluted liquid was plated onto each well of the 96-well plate. Following incubation for 24 hours, the compound dissolved in DMSO was diluted to 1/100 by the incubated liquid. 100 μl of the resulting compound-diluted liquid was dispensed into each well, and then incubated for 30 minutes.
The quantitative assay of cortisol generated in this reaction was performed by using a system provided from Assay Designs Inc. The resultant enzyme reactant was added to the plate coated with anti-mouse IgG, and then a specific antibody binding to the cortisol and alkaline phosphatase-bound cortisol are together input thereto, followed by reaction at room temperature for 2 hours. The contents in the wells after reaction were thrown away, and then washing was performed with a buffer solution consisting of surfactant and tris-buffered saline three times. After that, a p-nitrophenyl phosphate solution, which is a substrate for the alkaline phosphatase, was input thereto for coloring reaction, followed by reaction for 1 hour, and then the light absorbance at 405 nm was measured by using a plate reader.

T2 sequence (P28845 whole entry): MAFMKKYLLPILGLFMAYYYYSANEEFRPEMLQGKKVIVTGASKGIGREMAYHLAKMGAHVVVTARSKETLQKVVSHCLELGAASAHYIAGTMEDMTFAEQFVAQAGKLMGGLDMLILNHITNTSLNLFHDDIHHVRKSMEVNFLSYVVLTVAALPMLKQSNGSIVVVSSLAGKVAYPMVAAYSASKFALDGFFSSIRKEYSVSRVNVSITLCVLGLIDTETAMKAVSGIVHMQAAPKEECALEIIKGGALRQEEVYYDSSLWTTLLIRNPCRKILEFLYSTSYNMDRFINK
T1 sequence (P28845 whole entry): as above

| inhibition at 10 µM [1] [%] | inhibition at 100 µM [1] [%] | Compound | effect on insulin sensitivity (11β-HSD1) |
| --- | --- | --- | --- |
| 68 | 83 | CC1CCCCN1c1cccc(C(=O)N[C@H]2C3CC4CC2C[C@](O)(C4)C3)n1 (stereo partly drawn) [Example 61] |  |
| 65 | 81 | COc1ccc(N2CCN(c3cccc(C(=O)N[C@H]4C5CC6CC4C[C@](O)(C6)C5)n3)[C@H](C)C2)cn1 [Example 119] |  |
| 48 | 79 | C[C@@H]1CN(c2ccc(N)nc2)CCN1c1cccc(C(=O)N[C@H]2C3CC4CC2C[C@](O)(C4)C3)n1 [Example 125, 6-((R)-4-(6-aminopyridin-3-yl)-2-methylpiperazin-1-yl)-N-((E)-5-hydroxyadamantan-2-yl)picolinamide] |  |
| 41 | 85 | C[C@@H]1CN(CC(C)(C)O)CCN1c1cccc(C(=O)N[C@H]2C3CC4CC2C[C@](O)(C4)C3)n1 [Example 192, 6-((R)-4-(2-hydroxy-2-methylpropyl)-2-methylpiperazin-1-yl)-N-((E)-5-hydroxyadamantan-2-yl)picolinamide] |  |
| 64 | 86 | C[C@@H]1CN(C2CC2)CCN1c1cccc(C(=O)N[C@H]2C3CC4CC2C[C@](O)(C4)C3)n1 [Example 196, 6-((R)-4-cyclopropyl-2-methylpiperazin-1-yl)-N-((E)-5-hydroxyadamantan-2-yl)picolinamide] |  |
| 40 | 78 | C[C@@H]1CN(C2CCN(S(C)(=O)=O)CC2)CCN1c1cccc(C(=O)N[C@H]2C3CC4CC2C[C@](O)(C4)C3)n1 [Example 201, N-((E)-5-hydroxyadamantan-2-yl)-6-((R)-2-methyl-4-(1-(methylsulfonyl)piperidin-4-yl)piperazin-1-yl)picolinamide] |  |
| 41 | 76 | C[C@@H]1CN(S(C)(=O)=O)CCN1c1cccc(C(=O)N[C@H]2C3CC4CC2C[C@](O)(C4)C3)n1 [Example 204] |  |

Second part, the compound before the results:

| Compound | inhibition at 10 µM [1] [%] | inhibition at 100 µM [1] [%] | effect on insulin sensitivity (11β-HSD1) |
| --- | --- | --- | --- |
| CC1(C)[C@@H](OC(=O)CCC(=O)O)CC[C@]2(C)[C@H]3C(=O)C=C4[C@@H]5C[C@@](C)(C(=O)O)CC[C@]5(C)CC[C@@]4(C)[C@]3(C)CC[C@@H]12 [Carbenoxolone] |  |  | improves insulin sensitivity |
| O=C(N[C@H]1C2CC3CC1C[C@](O)(C3)C2)c1cccc(N2CCC(c3ccccc3)CC2)n1 [Example 47] | 36 | 96 |  |
| O=C(N[C@H]1C2CC3CC1C[C@](O)(C3)C2)c1cccc(N2CCc3ccccc3C2)n1 [Example 60] | 68 | 82 |  |
| CS(=O)(=O)c1ccc(N2CCN(c3cccc(C(=O)N[C@H]4C5CC6CC4C[C@](O)(C6)C5)n3)CC2)cc1 [Example 77, N-((E)-5-hydroxyadamantan-2-yl)-6-(4-(4-(methylsulfonyl)phenyl)piperazin-1-yl)picolinamide] | 73 | 87 |  |
| O=C(N[C@H]1C2CC3CC1C[C@](O)(C3)C2)c1cccc(N2CCN(c3ccc(F)cn3)CC2)n1 [Example 87] | 40 | 79 |  |
| Cc1ccc(N2CCN(c3cccc(C(=O)N[C@H]4C5CC6CC4C[C@](O)(C6)C5)n3)CC2)nc1 [Example 88] | 40 | 84 |  |
| O=C(N[C@H]1C2CC3CC1C[C@](O)(C3)C2)c1cccc(N2CCC(c3ccc(F)cn3)CC2)n1 [Example 97] | 58 | 77 |  |
| Cc1ccc(C2CCN(c3cccc(C(=O)N[C@H]4C5CC6CC4C[C@](O)(C6)C5)n3)CC2)nc1 [Example 98] | 38 | 78 |  |
| COc1ccc(N2CCN(c3cccc(C(=O)N[C@H]4C5CC6CC4C[C@](O)(C6)C5)n3)[C@H](C)C2)nc1 [Example 118] | 64 | 84 |  |
| COc1ccc(N2CCCN(c3cccc(C(=O)N[C@H]4C5CC6CC4C[C@](O)(C6)C5)n3)CC2)c(F)c1 [Example 124] | 54 | 85 |  |
| COc1ccc(N2CCN(c3cccc(C(=O)N[C@H]4C5CC6CC4C[C@](O)(C6)C5)n3)[C@H](C)C2)cc1C(N)=O [Example 150] | 76 | 87 |  |
| CNC(=O)c1cc(N2CCN(c3cccc(C(=O)N[C@H]4C5CC6CC4C[C@](O)(C6)C5)n3)[C@H](C)C2)ccc1OC [Example 151] | 75 | 85 |  |
| C[C@@H]1CN(c2ccc(C(C)(C)O)cc2)CCN1c1cccc(C(=O)N[C@H]2C3CC4CC2C[C@](O)(C4)C3)n1 [Example 173, N-((E)-5-hydroxyadamantan-2-yl)-6-((R)-4-(4-(2-hydroxypropan-2-yl)phenyl)-2-methylpiperazin-1-yl)picolinamide] | 81 | 87 |  |
| C[C@@H]1CN(c2ccc(OCC(N)=O)c(Cl)c2)CCN1c1cccc(C(=O)N[C@H]2C3CC4CC2C[C@](O)(C4)C3)n1 [Example 190, 6-((R)-4-(4-(2-amino-2-oxoethoxy)-3-chlorophenyl)-2-methylpiperazin-1-yl)-N-((E)-5-hydroxyadamantan-2-yl)picolinamide] | 76 | 89 |  |
| COc1ccc(N2CCN(c3nccc(C(=O)N[C@H]4C5CC6CC4C[C@](O)(C6)C5)n3)[C@H](C)C2)c(F)c1 [Example 231] | 42 | 78 |  |
| C[C@H]1CN(c2ccc(S(C)(=O)=O)cc2F)CCN1c1nccc(C(=O)N[C@H]2C3CC4CC2C[C@](O)(C4)C3)n1 [Example 284] | 56 | 86 |  |

— patent US9096571B2, “Picolinamide and pyrimidine-4-carboxamide compounds, process for preparing and pharmaceutical composition comprising the same” (SK CHEMICALS CO., LTD., priority 2010, dated 2015)
